According to patent publication US11274097B2, “2-(het)aryl-substituted condensed bicyclic heterocycle derivatives as pest control agents” (BAYER CROPSCIENCE AKTIENGESELLSCHAFT, priority 2014, dated 2022):

What was measured:
Type in all cases: in vivo
Boophilus microplus = Boophilus microplus injection test (BOOPMI Inj); conditions: application rate 20 μg/animal; injection into engorged adult female cattle ticks; after 7 days
Protocol: Boophilus microplus—Injection Test (BOOPMI Inj)
Solvent: dimethyl sulphoxide
To produce an appropriate active ingredient formulation, 10 mg of active ingredient are mixed with 0.5 ml of solvent and the concentrate is diluted with solvent to the desired concentration.
1 μl of the active ingredient solution is injected into the abdomen of 5 engorged adult female cattle ticks (Boophilus microplus). The animals are transferred into dishes and kept in a climate-controlled room.
Efficacy is assessed after 7 days by laying of fertile eggs. Eggs which are not visibly fertile are stored in a climate-controlled cabinet until the larvae hatch after about 42 days. An efficacy of 100% means that none of the ticks has laid any fertile eggs; 0% means that all the eggs are fertile.

Musca domestica = Musca domestica test (MUSCDO); conditions: application rate 20 ppm; adult houseflies; after 2 days
Protocol: Musca domestica Test (MUSCDO) Solvent: dimethyl sulphoxide To produce an appropriate active ingredient formulation, 10 mg of active ingredient are mixed with 0.5 ml of dimethyl sulphoxide, and the concentrate is diluted with water to the desired concentration. Vessels containing a sponge treated with sugar solution and the active ingredient formulation of the desired concentration are populated with 10 adult houseflies (Musca domestica). After 2 days, the kill in % is determined. 100% means that all of the flies have been killed; 0% means that none of the flies have been killed.

Phaedon cochleariae = Phaedon cochleariae spray test (PHAECO); conditions: application rate 500 g/ha; larvae; after 7 days
How it was run: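 Chinese cabbage leaf discs sprayed with compound in acetone/dimethylformamide with alkylaryl polyglycol ether emulsifier in water, dried, then infested with mustard beetle larvae. Efficacy scored after 7 days as % larvae killed (100% = all dead, 0% = none).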

Aphis gossypii = Aphis gossypii translaminar test (APHIGO t); conditions: 2.4 g/ha, 7 dat
Protocol: Aphis gossypii—Translaminar Test (APHIGO t)
Solvent: 7 parts by weight of dimethylformamide
Emulsifier: alkylaryl polyglycol ether
To produce an appropriate active ingredient formulation, 1 part by weight of active ingredient is dissolved using the stated parts by weight of solvent and made up with water containing an emulsifier concentration of 1000 ppm until the desired concentration is attained. To produce further test concentrations, the preparation is diluted with emulsifier-containing water. In the event that addition of ammonium salts or/and penetrants (rapeseed oil methyl ester) is required, these are each pipetted in a concentration of 1000 ppm after the finished formulation solution has been diluted.
One-leaved cotton plants (Gossypium hirsutum) heavily infested by the cotton aphid (Aphis gossypii) are treated by spraying the top side of the leaf with the active ingredient formulation in the desired concentration.
After the desired time, the kill in % is determined. 100% means that all the aphids have been killed and 0% means that none of the aphids have been killed.

Ctenocephalides felis = Ctenocephalides felis in vitro contact test; conditions: application rate 5 μg/cm^2; adult cat fleas; after 48 h
Protocol: Ctenocephalides felis—In Vitro Contact Test
For the coating of the test tubes, 9 mg of active ingredient are first dissolved in 1 ml of acetone p.a. and then diluted to the desired concentration with acetone p.a. 250 μl of the solution are distributed homogeneously on the inner walls and base of a 25 ml test tube by turning and rocking on an orbital shaker (rocking rotation at 30 rpm for 2 h). With 900 ppm active ingredient solution and internal surface 44.7 cm^2, given homogeneous distribution, an area-based dose of 5 μg/cm^2 is achieved.
After the solvent has evaporated off, the tubes are populated with 5-10 adult cat fleas (Ctenocephalides felis), sealed with a perforated plastic lid and incubated in a horizontal position at room temperature and ambient humidity. After 48 h, efficacy is determined. To this end, the test tubes are stood upright and the fleas are knocked to the base of the tube. Fleas which remain motionless at the base or move in an uncoordinated manner are considered to be dead or moribund.
100% efficacy means that all the fleas were dead or moribund. 0% efficacy means that no fleas were harmed.

Structure (SMILES): CCS(=O)(=O)c1cc(C(F)(F)F)cnc1-c1nc2cc(C(F)(F)F)ncc2n1C [Example I-21]
- efficacy (laying of fertile eggs) (Boophilus microplus): 80%
- efficacy (kill) (Musca domestica): 95%
- efficacy (Phaedon cochleariae): 100%
- % efficacy (Aphis gossypii): 65%
- efficacy (Ctenocephalides felis): 100%
